“Also recorded” adds a separate entry of the source. Where two headings read alike, the source gives them in different places.
Columns and labels:
[1] = target: T1, pyrene-labeled F-actin (PFA) (Oryctolagus cuniculus, UniProt P68135); assay: Compound binding to pyrene-labeled F-actin, steady-state fluorescence dose response; design: species or system rabbit; conditions: for effect on PFA (pyrene) fluorescence, dose-response: 2.5–150 μM compound
T1 construct: Rabbit skeletal F-actin was prepared as described previously from acetone powder; from tissue; host or cells: rabbit skeletal muscle (acetone powder)

[2] = test system: skeletal and cardiac actin; design: method as in PMID 32788211; conditions: cited from earlier work; for isoform-specific differences in actin polymerization: skeletal versus cardiac actin
[3] = target: T2, PFA.C.S1 complex (F-actin with cardiac S1) (Oryctolagus cuniculus, UniProt P68135); assay: Steady-state S1 binding to and ATP-induced dissociation from the PFA.compound complex; assay type: biochemical, bovine; conditions: 0.7:1 S1:actin, rigor; compound 100 μM except Flu and Dan 50 μM, Mit 10 μM
T2 construct: Rabbit skeletal F-actin was prepared as described previously from acetone powder; tissue Pelfreez Biologicals (bovine left ventricular muscle); host or cells: rabbit skeletal muscle (actin); bovine left ventricular muscle (myosin S1)
Experimental: We then added Mg.ATP and measured PFA fluorescence (Fig. 8B, peach bars).
Fluorescence spectra of 2 μM PFA in F-Mg buffer were acquired with a Cary spectrophotometer. The sample was placed in a cuvette in a temperature-controlled holder and excited with a Xenon flash lamp at 365 nm with 5 nm slit width. Emission fluorescence intensity was acquired and averaged for 30 s at 407 nm with a 10 nm slit width. […] Fluorescence intensity (F) was corrected for each compound's emission at 407 nm.
Fcalc was determined from normalized fluorescence intensity:(5) Fcalc=(FCompound+F0.7S1)

[4] = target: T3, rigor PFA.S1 complex (cardiac myosin S1) (Oryctolagus cuniculus, UniProt P68135); assay: Stopped-flow ATP-induced dissociation of actin-S1 complex (ATP binding and isomerization); assay type: biochemical, bovine; conditions: for decrease in rate constant k+2 for isomerization versus control: hyperbolic fits of kobs1 versus [MgATP]; for overall category of compound effect: severe if at least one parameter (K1 or k+2) was affected >3-fold; for effect on K1 (shown as 1/K1), category: versus control
T3 construct: Rabbit skeletal F-actin was prepared as described previously from acetone powder; tissue Pelfreez Biologicals (bovine left ventricular muscle); host or cells: rabbit skeletal muscle (actin); bovine left ventricular muscle (myosin S1)
Experimental: To determine the equilibrium constant K1 for the formation of the collision complex, A.M.T, the rigor complex of PFA and myosin-S1 complex was formed in one syringe and the Mg.ATP placed in another syringe. […] (Equation 10). The rate constant k+2 was determined from hyperbolic plots of kobs1 versus [MgATP] […] The association equilibrium constant K1 was determined from the ratio of K1k+2/k+2.
Experiments were performed at 25 °C with filtered and degassed solutions. The instrument dead time for single-mix experiments was 1.3 ms. Samples were excited at 365 nm, and pyrene emission fluorescence was acquired with a 2 mm path length and 400 nm long-pass filter. Data analysis was done using the program, ORIGIN (OriginLab Corp).
K1 was determined by mixing the rigor complex of PFA.S1 (A.M) (final concentration of 0.05 μM) with varying final concentrations of MgATP (12.5–1000 μM) in F-Mg buffer in the absence and presence of the compounds, whereby the PFA.compound complex was first made, then mixed with S1, and placed in one syringe, and MgATP solution was placed in the other syringe. The transient curves were fitted to rate constants, kobs, fast and kobs, slow, and with corresponding amplitudes A1 and A2.

PFA.C.S1 complex = target: T4, PFA.C.S1 complex (Oryctolagus cuniculus, UniProt P68135); assay: Chase experiment: dissociation of S1 from rigor actin-S1 complex by unlabeled F-actin; assay type: biochemical, bovine; conditions: 20-fold unlabeled F-actin chase, 0.25 μM PFA.S1, 20 min
T4 construct: Rabbit skeletal F-actin was prepared as described previously from acetone powder; tissue Pelfreez Biologicals (bovine left ventricular muscle); host or cells: rabbit skeletal muscle (actin); bovine left ventricular muscle (myosin S1)
Excerpt: The transient curve was best fitted to a double exponential equation to yield a fast and slow rate constant of 0.01 ± 5E-4 s^−1 and 0.003 ± 4E-4 s^−1, respectively.

[5] = clinical use, cited from earlier work; for liver toxicity: ref 26 for Dan
[6] = test system: PFA.S1 (pyrene-labeled F-actin with cardiac myosin S1); assay: Steady-state PFA fluorescence with myosin-binding drugs (PFA, PFA.S1, plus MgATP); assay type: biochemical, bovine; conditions: 5 μM drug; for change in PFA fluorescence: 2 μM PFA, no S1; for PFA fluorescence restored by addition of MgATP: 2 μM PFA.S1, 1 mM MgATP, 95% without compound; for effect on S1-induced decrease in pyrene fluorescence: S1 equimolar to actin, no ATP
Experimental: (§1) Fluorescence spectra of 2 μM PFA in F-Mg buffer were acquired with a Cary spectrophotometer. The sample was placed in a cuvette in a temperature-controlled holder and excited with a Xenon flash lamp at 365 nm with 5 nm slit width. Emission fluorescence intensity was acquired and averaged for 30 s at 407 nm with a 10 nm slit width. A final concentration of 2 μM PFA in F-actin buffer was used. Fluorescence intensity (F) was corrected for each compound's emission at 407 nm.

[7] = test system: equimolar PFA.S1 (2 μM) complex; assay: Effect of nucleotide analogs on PFA-S1 fluorescence; assay type: biochemical, bovine; conditions: 10 mM PPi
Experimental: The ten compounds were obtained from Target Molecule Corp and stored at –20 °C as 10 mM stock solutions in DMSO until use. OM and Mava were obtained from Selleck Chemicals and stored as 10 mM stock solutions at –20 °C until use. Sodium vanadate ([…]) and potassium pyrophosphate (PPi) were obtained from Sigma-Aldrich, and stock solutions of 50 mM and 1 M, respectively, were prepared as described previously ([36]). […] To study the effect of pyrophosphate, 10 mM PPi was added to an equimolar PFA.S1 (2 μM) complex. These ligand concentrations were saturating.
as §1

[8] = 2 μM PFA, no MgATP, fits to the Hill equation, read-out: apparent dissociation equilibrium constant, Kd, of compound binding to PFA
[9] = 2 μM PFA, 200-500 μM MgATP, read-out: Kd of compound binding to PFA in the presence of MgATP

| Structure (SMILES) | effect on PFA (pyrene) fluorescence, dose-response ([1]; 2 μM PFA) | polymerization rate of skeletal and cardiac actin [2] | decrease in PFA fluorescence of PFA.compound.S1, experimental versus calculated (Fcalc) [3] | overall category of compound effect [4] | increase in K1 versus control [4] | other results |
| --- | --- | --- | --- | --- | --- | --- |
| COc1ccccc1OCCNCC(O)COc1cccc2[nH]c3ccccc3c12 (stereo not shown) [Car] | minimal effects | reduced the polymerization rate | greater decrease in PFA fluorescence | mild (mild effects to be <1.5-fold) |  | decrease in rate constant k+2 for isomerization versus control [4]: < 1.5 fold; effect on K1 (shown as 1/K1), category [4]: mild (mild effects to be <1.5-fold) |
| O=C1CN(/N=C/c2ccc(-c3ccc([N+](=O)[O-])cc3)o2)C(O)=N1 [Dan, Dantrolene] | decreased PFA fluorescence with hyperbolic dependence | did not have significant effects | smaller decrease in PFA fluorescence than expected | severe (severe effects to be >3-fold) | ≥ 2 factor | Kd [1, 8]: 17.5 ± 6 µM; rate of dissociation of S1 from rigor actin-S1 complex versus control (PFA.C.S1 complex): No significant change; liver toxicity [5]: causes hepatoxicity |
| OCCN1CCN(CCCN2c3ccccc3Sc3ccc(C(F)(F)F)cc32)CC1 [Flp] |  | reduced the polymerization rate |  |  |  | liver toxicity [5]: cause liver toxicity |
| CC(C)C(=O)Nc1ccc([N+](=O)[O-])c(C(F)(F)F)c1 [Flu] | decreased PFA fluorescence with hyperbolic dependence |  | smaller decrease in PFA fluorescence than expected | severe (severe effects to be >3-fold) | ≥ 2 factor | Kd [1]: 39.6 ± 22 µM; effect of MgATP on fluorescence of PFA–compound complexes ([1]; 200-500 μM MgATP): MgATP relieves the fluorescence inhibition; rate of dissociation of S1 from rigor actin-S1 complex versus control (PFA.C.S1 complex): No significant change |
| C=CCc1ccc(O)c(-c2ccc(O)c(CC=C)c2)c1 [Hon] | minimal effects | did not have significant effects | no effect | mild (mild effects to be <1.5-fold) |  | decrease in rate constant k+2 for isomerization versus control [4]: < 1.5 fold; effect on K1 (shown as 1/K1), category [4]: mild (mild effects to be <1.5-fold) |
| CC(C)n1c(=O)cc(N[C@@H](C)c2ccccc2)[nH]c1=O [Mava, mavacamten] |  |  |  |  |  | change in PFA fluorescence [6]: 1%; PFA fluorescence restored by addition of MgATP [6]: 97%; effect on S1-induced decrease in pyrene fluorescence [6]: no effect |
| OC(c1cc(C(F)(F)F)nc2c(C(F)(F)F)cccc12)C1CCCCN1 (stereo not shown) [Mef] | decreased PFA fluorescence with hyperbolic dependence | did not have significant effects | smaller decrease in PFA fluorescence than expected | severe (severe effects to be >3-fold) | ≥ 2 factor | Kd [1, 9]: 89 ± 28.4 µM; Kd [1, 8]: 20 ± 10 µM; effect of MgATP on fluorescence of PFA–compound complexes ([1]; 200-500 μM MgATP): increased PFA fluorescence in the presence of MgATP; also recorded: MgATP relieves the fluorescence inhibition |
| O=C1c2c(O)ccc(O)c2C(=O)c2c(NCCNCCO)ccc(NCCNCCO)c21 [Mit, mitoxantrone] | decreased PFA fluorescence with hyperbolic dependence | reduced the polymerization rate | smaller decrease in PFA fluorescence than expected | severe (severe effects to be >3-fold) | ≥ 2 factor | Kd [1, 9]: 24.7 ± 5.8 µM; Kd [1, 8]: 7.2 ± 1.2 µM; effect of MgATP on fluorescence of PFA–compound complexes ([1]; 200-500 μM MgATP): increased PFA fluorescence in the presence of MgATP; also recorded: MgATP relieves the fluorescence inhibition; rate of dissociation of S1 from rigor actin-S1 complex versus control (PFA.C.S1 complex): No significant change |
| COC(=O)N1CCN(Cc2cccc(NC(=O)Nc3ccc(C)nc3)c2F)CC1 [OM, omecamtiv mecarbil] |  |  |  |  |  | change in PFA fluorescence [6]: 4%; PFA fluorescence restored by addition of MgATP [6]: 65%; effect on S1-induced decrease in pyrene fluorescence [6]: no effect |
| c1ccc2c(c1)Nc1ccccc1S2 [Phn] | minimal effects |  | greater decrease in PFA fluorescence | severe (severe effects to be >3-fold) | ≥ 2 factor | isoform-specific differences in actin polymerization [2]: showed isoform-specific differences |
| CCCCCNC(=N)N/N=C/c1c[nH]c2ccc(OC)cc12 [Teg] | minimal effects |  | smaller decrease in PFA fluorescence than expected | severe (severe effects to be >3-fold) | ≥ 2 factor | isoform-specific differences in actin polymerization [2]: showed isoform-specific differences; heart failure ([5]; FDA caution or withdrawal): can contribute to heart failure |
| CSc1ccc2c(c1)N(CCC1CCCCN1C)c1ccccc1S2 (stereo not shown) [Thi] |  | reduced the polymerization rate |  |  |  | isoform-specific differences in actin polymerization [2]: showed isoform-specific differences; liver toxicity [5]: cause liver toxicity |
| O=P([O-])([O-])OP(=O)([O-])[O-].[K+].[K+].[K+].[K+] [potassium pyrophosphate (PPi), potassium pyrophosphate] |  |  |  |  |  | restoration of pyrene fluorescence of PFA-S1 [7]: almost completely restored |
